Literature values as cited in patent publication US9635858B2, “Pesticide and a method of controlling a wide variety of pests” (GOWAN COMERCIO INTERNACIONAL E SERVICOS LIMITADA, priority 2011, dated 2017).

Details: rats; cited from earlier work

For `C/C=C(\C)C(=O)O[C@H]1C[C@@H](OC(C)=O)[C@@]2(C(=O)OC)CO[C@H]3[C@@H](O)[C@@](C)([C@]45O[C@@]4(C)[C@H]4C[C@@H]5O[C@@H]5OC=C[C@@]54O)C4[C@]1(CO[C@]4(O)C(=O)OC)[C@@H]32` (stereo partly shown) [Azadirachtin], the LD50 is given as > 3,540 mg/kg.
